From patent US6355676B1, “Fumaric acid micro tablets” (Fumapharm AG, priority 1998, dated 2002)
Where a name gives a salt, the structure may show the parent alone.

How the values were obtained:
isolated monocytes = experiment: Endotoxin-stimulated TNF-α secretion in isolated monocytes; format: cell-based, human; details: initial exposure
Text: (§1) With multiple re-exposure, the endotoxin-induced increase in TNF-α secretion is reduced, i.e. adaptation takes place.

[1] = system: human mononuclear cells of the peripheral blood (PBMC); experiment: Endotoxin-stimulated TNF-α secretion in PBMC; format: cell-based
Text: as §1

For `COC(=O)/C=C/C(=O)O` [methyl hydrogen fumarate], the “endotoxin-stimulating TNF-α secretion” value (isolated monocytes) was “initially increases”, the “endotoxin-stimulating TNF-α secretion” value ([1]; initial exposure, PBMC) was “initially increases” and the “endotoxin-induced increase in TNF-α secretion” value ([1]; multiple re-exposure, cell type not restated) was “reduced”.
